IC50 data for 56 molecules are collected here from patent publication US11266643B2, “Triaryl compounds for treatment of PD-L1 diseases” (CHEMOCENTRYX, INC., priority 2019, dated 2022).

Where only a bound is given, the exact number is not on record here.

The experiment concerns the target human PD-L1 (Homo sapiens (Human), UniProt Q9NZQ7). The experiment can be described thus: Enzyme-Linked Immunosorbent Assay (ELISA), PD-1/PD-L1 binding. In a few lines:
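Plates coated with […] human PD-L1 overnight at 4° C, blocked, then 1:5 serial compound dilutions added with human PD-1 […] 0.31 μg/mL for 1 h at 37° C. Bound PD-1 detected with streptavidin-HRP and TMB (20 min, 37° C); absorbance read at 450 nm after H2SO4 stop.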
For orientation: In an ELISA, binding on a coated surface is turned into a signal by an enzyme label.

Where [1] appears, read: PD-1/PD-L1 ELISA, human PD-L1 coated plates, Table 1.
The mark [2] stands for this setting: human PD-1/PD-L1 ELISA, plates coated with human PD-L1.
[3] abbreviates: plate-coated human PD-L1, biotinylated Human PD-1, absorbance at 450 nm.

Chain of human PD-L1 (Q9NZQ7 19-239): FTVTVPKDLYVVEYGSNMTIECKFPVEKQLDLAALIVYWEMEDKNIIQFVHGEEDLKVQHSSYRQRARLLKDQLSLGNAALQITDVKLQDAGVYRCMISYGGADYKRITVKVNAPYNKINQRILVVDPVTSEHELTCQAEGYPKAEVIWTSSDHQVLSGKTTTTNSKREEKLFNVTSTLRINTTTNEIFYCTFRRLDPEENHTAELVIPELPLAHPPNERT

The IC50 is the concentration needed to halve the response being measured. A high value points to weaker potency. In the case of `COc1cc(-c2cccc(-c3cccc(NC(=O)c4ccccn4)c3C)c2C)cc(F)c1CN1CCCC[C@H]1C(=O)O` [Example 1.380], the IC50 under setting [1] was 10 to 1000 nM.
`COc1cc(-c2cccc(-c3cccc(Nc4nccc5nccnc45)c3C)c2C)cc(F)c1CN[C@H](C)CO` [Example 1.207]: under setting [1], the IC50 was under 10 nM.
For `COc1cc(-c2cccc(-c3cccc(NC(=O)c4c[nH]c(=O)n(C)c4=O)c3C)c2C)cc(F)c1CNCCCC(N)=O` [Example 1.083], under setting [2], the 50% inhibitory concentration (IC50) was under 10 nM.
The molecule `COc1cc(-c2cccc(-c3cccc(NC(=O)C4=CNCN(C)C4=O)c3C)c2C)cc(F)c1CNCCO` [Example 1.210] showed an IC50 under setting [1] of under 10 nM.
Same read-out and setting: then `COc1cc(-c2cccc(-c3cccc(NC(=O)c4c[nH]c(=O)n(C)c4=O)c3C)c2C)cc(F)c1CNC1CCOC1` (centres unmarked) [Example 1.224], with under 10 nM.
The same measure, in the same setting: for `COc1cc(-c2cccc(-c3cccc(NC(=O)c4ccccn4)c3C)c2C)cc(F)c1CNCCO` [Example 1.396] the value was under 10 nM.
`COc1cc(-c2cccc(-c3cccc(NC(=O)c4cn(C)c(=O)n(C)c4=O)c3C)c2Cl)cc(F)c1CN[C@H]1COCC[C@@H]1O` [Example 2.088]: under setting [3], the IC50 is under 10 nM.
As for `COc1cc(-c2cccc(-c3cccc(NC(=O)c4c[nH]c(=O)n(C)c4=O)c3C)c2C)cc(F)c1CNC[C@H](C)O` [Example 1.223], the IC50 under setting [1] was under 10 nM.
Under setting [2], `COc1cc(-c2cccc(-c3cccc(Nc4nccc5nccnc45)c3C)c2C)cc(F)c1CNC1CCOCC1` [Example 1.123] returned an IC50 of under 10 nM.
As to `COc1cc(-c2cccc(-c3cccc(NC(=O)c4c[nH]c(=O)n(C)c4=O)c3C)c2C)cc(F)c1CN[C@H]1CCC(=O)NC1` [Example 1.230], the IC50 under setting [1] was under 10 nM.
In turn, `COc1cc(-c2cccc(-c3cccc(NC(=O)c4cn(C)c(=O)n(C)c4=O)c3C)c2C)cc(F)c1CN[C@@H]1CCC[C@@H]1O` [Example 1.178] showed an IC50 under setting [2] of under 10 nM.
In the case of `COc1cc(-c2cccc(-c3cccc(NC(=O)c4cn(C)c(=O)n(C)c4=O)c3C)c2C)cc(F)c1CNCCC1CNC(=O)C1` (centres unmarked) [Example 1.082], the IC50 under setting [2] was under 10 nM.
Molecule `COc1cc(-c2cccc(-c3cccc(Nc4nccc5c4C(=O)N(C)CC5)c3C)c2C)cc(F)c1CN[C@@H]1CNC(=O)C1` [Example 1.196] displayed an IC50 under setting [2] of 10 to 1000 nM.
As for `COc1cc(-c2cccc(-c3cccc(Nc4cncc5nccnc45)c3C)c2C)cc(F)c1CN[C@H]1CCC(=O)NC1` [Example 1.042], the IC50 under setting [2] was under 10 nM.
Under setting [2], `COc1cc(-c2cccc(-c3cccc(Nc4nccc5nccnc45)c3C)c2C)cc(F)c1CNC[C@H]1CCC(=O)N1` [Example 1.159] showed a half-inhibitory concentration (IC50) of under 10 nM.
In the case of `COc1cc(-c2cccc(-c3cccc(NC(=O)c4nn(C)c(=O)n(C)c4=O)c3C)c2C)cc(F)c1CNC1CNC(=O)NC1=O` (centres unmarked) [Example 1.045], the half-inhibitory concentration (IC50) under setting [2] was in the range of 10 to 1000 nM.
For `COc1cc(-c2cccc(-c3cccc(NC(=O)c4cncn(C)c4=O)c3C)c2C)cc(F)c1CN[C@@H]1CCOC[C@@H]1O` [Example 1.066], under setting [2], the half-inhibitory concentration (IC50) is under 10 nM.
Molecule `COc1cc(-c2cccc(-c3cccc(Nc4cccc5cccnc45)c3C)c2C)cc(F)c1CN1CC(C(=O)O)C1` [Example 1.256] showed an IC50 under setting [1] of 10 to 1000 nM.
As to `COc1cc(-c2cccc(-c3cccc(Nc4nccc5nccnc45)c3Cl)c2Cl)cc(F)c1CN1CC(C)(C(=O)O)C1` [Example 2.109], the IC50 under setting [3] was under 10 nM.
With `COc1cc(-c2cccc(-c3cccc(NC(=O)c4c[nH]c(=O)n(C)c4=O)c3C)c2C)cc(F)c1CNCC1(O)CC1` [Example 1.214], under setting [1], the IC50 was under 10 nM.
For `COc1cc(-c2cccc(-c3cccc(Nc4nccc5c4NCCN5)c3C)c2C)cc(F)c1CN[C@@H]1CCC[C@@H]1O` [Example 1.173], the IC50 under setting [2] was in the range of 10 to 1000 nM.
`COc1cc(-c2cccc(-c3cccc(NC(=O)c4c[nH]c(=O)n(C)c4=O)c3C)c2Cl)cc(F)c1CN[C@@H]1CCOC[C@@H]1O` [Example 2.035]: the IC50 under setting [3] was under 10 nM.
For the molecule `COc1cc(-c2cccc(-c3cccc(Nc4nccc5nccnc45)c3C)c2Cl)cc(F)c1CNCC(C)(C)O` [Example 2.112], the IC50 under setting [3] was under 10 nM.
As for `COc1cc(-c2cccc(-c3cccc(NC(=O)c4cn(C)c(=O)n(C)c4=O)c3C)c2Cl)cc(F)c1CNC1(C)CCOCC1` [Example 2.050], the IC50 under setting [3] was under 10 nM.
As for `COc1cc(-c2cccc(-c3cccc(NC(=O)c4cccn(C)c4=O)c3C)c2C)cc(F)c1CNCC(=O)O` [Example 1.290], the IC50 under setting [1] was under 10 nM.
Under setting [1], `COc1cc(-c2cccc(-c3cccc(Nc4cccc5ccn(C)c(=O)c45)c3C)c2C)cc(F)c1CN1CC(C(=O)O)C1` [Example 1.284] showed an IC50 of 10 to 1000 nM.
With `COc1cc(-c2cccc(-c3cccc(Nc4nccc5nccnc45)c3C)c2F)cc(F)c1CNC[C@@H]1CCC(=O)N1` [Example 1.028], the IC50 under setting [2] is 10 to 1000 nM.
On to `COc1cc(-c2cccc(-c3cccc(NC(=O)c4cn(C)c(=O)n(C)c4=O)c3Cl)c2Cl)cc(F)c1CN[C@@H]1COCC[C@H]1O` [Example 2.070], for which the IC50 under setting [3] is under 10 nM.
`COc1cc(-c2cccc(-c3cccc(NC(=O)C4CN(C)CCO4)c3C)c2C)cc(F)c1CN` (centres unmarked) [Example 1.315] had an IC50 under setting [1] of 10 to 1000 nM.
On to `COc1cc(-c2cccc(-c3cccc(NC(=O)c4cn(C)c(=O)n(C)c4=O)c3C)c2C)cc(F)c1CN[C@@H]1COC[C@H]1O` [Example 1.057], for which the IC50 under setting [2] was under 10 nM.
Under setting [1], `COc1cc(-c2cccc(-c3cccc(NC(=O)c4ccccn4)c3C)c2C)cc(F)c1CN1CCCC[C@@H]1C(=O)O` [Example 1.377] had an IC50 of 1000 to 10000 nM.
On to `COc1cc(-c2cccc(-c3cccc(NC(=O)c4cccn(C)c4=O)c3C)c2C)cc(F)c1CN(C)C[C@@H]1CCC(=O)N1` [Example 1.167], for which the IC50 under setting [2] is under 10 nM.
Still for that read-out and setting: then `COc1cc(-c2cccc(-c3cccc(NC(=O)c4c[nH]c(=O)n(C)c4=O)c3C)c2C)cc(F)c1CN[C@@H]1CCOC1` [Example 1.049], with under 10 nM.
Regarding `COc1cc(-c2cccc(-c3cccc(NC(=O)c4ccc(CO)cn4)c3C)c2C)cc(F)c1CN1CC(C(=O)O)C1` [Example 1.342], the IC50 under setting [1] is under 10 nM.
In the case of `COc1cc(-c2cccc(-c3cccc(NC(=O)c4cncn(C)c4=O)c3C)c2Cl)cc(F)c1CN[C@H]1CCC(=O)NC1` [Example 2.041], the IC50 under setting [3] is under 10 nM.
Turning to `COc1cc(-c2cccc(-c3cccc(NC(=O)c4cn(C)c(=O)n(C)c4=O)c3Cl)c2C)cc(F)c1CN[C@@H]1CCOC[C@@H]1O` [Example 1.010], under setting [2], the concentration for half-maximal inhibition (IC50) is under 10 nM.
Same read-out and setting: for `COc1cc(-c2cccc(-c3cccc(NC(=O)c4cn(C)c(=O)n(C)c4=O)c3C)c2F)cc(F)c1CN[C@@H]1CNC(=O)C1` [Example 1.020] the value was under 10 nM; for `COc1cc(-c2cccc(-c3cccc(Nc4nccc5nccnc45)c3C)c2C)cc(F)c1CNC(C)C` [Example 1.181], under 10 nM.
As for `COc1cc(-c2cccc(-c3cccc(NC(=O)c4ccncn4)c3C)c2C)cc(F)c1CN1CC(C(=O)O)C1` [Example 1.367], the IC50 under setting [1] is under 10 nM.
As to `COc1cc(-c2cccc(-c3cccc(NC(=O)c4ccc(OCC(N)=O)cn4)c3C)c2C)cc(F)c1CN` [Example 1.296], the IC50 under setting [1] was under 10 nM.
`COc1cc(-c2cccc(-c3cccc(NC(=O)c4c[nH]c(=O)n(C)c4=O)c3C)c2C)cc(F)c1CN(C)[C@@H]1CNC(=O)C1` [Example 1.073]: the IC50 under setting [2] lay in the range of 10 to 1000 nM.
`COc1cc(-c2cccc(-c3cccc(NC(=O)c4cn(C)c(=O)n(C)c4=O)c3C)c2C)cc(F)c1CNCCCC(N)=O` [Example 1.081]: the IC50 under setting [2] was under 10 nM.
The same measure, in the same setting: then `COc1cc(-c2cccc(-c3cccc(NC(=O)c4cccn(C)c4=O)c3C)c2C)cc(F)c1CN(C)[C@@H]1CNC(=O)C1` [Example 1.074], with 10 to 1000 nM; and `COc1cc(-c2cccc(-c3cccc(NC(=O)c4cn(C)c(=O)n(C)c4=O)c3C)c2C)cc(F)c1CNC1CCOC1` (centres unmarked) [Example 1.162], with under 10 nM.
For the molecule `COc1cc(-c2cccc(-c3cccc(NC(=O)c4cn(C)c(=O)n(C)c4=O)c3C)c2Cl)cc(F)c1CN(C)[C@@H]1CNC(=O)C1` [Example 2.072], the IC50 under setting [3] is under 10 nM.
For `COc1cc(-c2cccc(-c3cccc(NC(=O)c4c[nH]c(=O)n(C)c4=O)c3C)c2C)cc(F)c1CN[C@@H]1CCCC[C@@H]1O` [Example 1.217], the IC50 under setting [1] is under 10 nM.
For the molecule `COc1cc(-c2cccc(-c3cccc(NC(=O)c4cn(C)c(=O)n(C)c4=O)c3C)c2Cl)cc(F)c1CN[C@H]1CCOC1` [Example 2.087], under setting [3], the IC50 is under 10 nM.
Molecule `COc1cc(-c2cccc(-c3cccc(NC(=O)c4cncn(C)c4=O)c3C)c2C)cc(F)c1CN[C@H](C)CO` [Example 1.204] gave an IC50 under setting [1] of under 10 nM.
Consider `COc1cc(-c2cccc(-c3cccc(NC(=O)c4nn(C)c(=O)n(C)c4=O)c3C)c2C)cc(F)c1CN[C@@H]1CCC(=O)NC1` [Example 1.069], for which the IC50 under setting [2] is under 10 nM.
The molecule `COc1cc(-c2cccc(-c3cccc(NC(=O)c4cncn(C)c4=O)c3C)c2C)cc(F)c1CNCC1CCNC(=O)C1` (centres unmarked) [Example 1.051] displayed a half-inhibitory concentration (IC50) under setting [2] of under 10 nM.
On the same count and under the same terms, for `COc1cc(-c2cccc(-c3cccc(NC(=O)c4cncn(C)c4=O)c3C)c2C)cc(F)c1CNC[C@H]1CCC(=O)N1` [Example 1.186] the value was under 10 nM; for `COc1cc(-c2cccc(-c3cccc(NC(=O)c4cccn(C)c4=O)c3C)c2C)cc(F)c1CN[C@@H]1CCC[C@H]1O` [Example 1.117], under 10 nM.
The molecule `COc1c(CNC[C@@H]2CCC(=O)N2)ccc(-c2cccc(-c3cccc(NC(=O)c4cn(C)c(=O)n(C)c4=O)c3Cl)c2Cl)c1F` [Example 2.001] came in with an IC50 under setting [3] of under 10 nM.
For the molecule `COc1cc(-c2cccc(-c3cccc(NC(=O)c4cn(C)c(=O)n(C)c4=O)c3C)c2F)cc(F)c1CN[C@H]1CCOC[C@H]1O` [Example 2.105], the IC50 under setting [3] was under 10 nM.
On to `COc1cc(-c2cccc(-c3cccc(NC(=O)c4c[nH]c(=O)n(C)c4=O)c3C)c2C)cc(F)c1CNCc1noc(=O)[nH]1` [Example 1.120], for which the IC50 under setting [2] lay within 10 to 1000 nM.
As for `COc1cc(-c2cccc(-c3cccc(NC(=O)c4c[nH]c(=O)n(C)c4=O)c3Cl)c2Cl)cc(F)c1CN[C@@H]1CCOC[C@@H]1O` [Example 2.030], the half-inhibitory concentration (IC50) under setting [3] was under 10 nM.
